Measurements taken from patent publication US20220409573A1, “Hippocampus Regeneration And Memory Recovery” (INNOBIOSCIENCE, LLC, priority 2021, published 2022).

Assays:
[1] = test system: CA3-CA1 connections in hippocampal slices; assay: Electrophysiology in Wt hippocampal slices (fEPSP, PPF, LTP, LTD); format: cell-based, mice; settings: hippocampal slices; 6-BIO 10 nM
Description: Slice Preparation and Electrophysiology. […] Slices were transferred to an experimental chamber (2 ml), superfused (3 ml/min, at 20-22° C.) with gassed ACSF and visualized by trans-illumination with a binocular microscope (MSZ-10, Nikon, Melville, N.Y.). To evoke field excitatory postsynaptic potentials (fEPSPs), we stimulate with bipolar concentric electrodes (Platinum/Iridium, 125 μm OD diameter, FHC Inc., Bowdoin, Me.) generated by a stimulator (Axon 700b, Molecular Devices, Sunnyvale, Calif.) and connected to an isolation unit (Isoflex, AMPI, Jerusalem, Israel) . The stimulation was in the Stratum Radiatum within 100-200 μm from the recording site. The paired pulse facilitation index was calculated by ((R2−R1)/R1), where R1 and R2 were the peak amplitudes of the first and second fEPSP respectively. To generate LTP we used Theta Burst Stimulation (TBS) consisting of 5 trains of stimulus with an inter-train interval of 20 s. Each train consisted of 10 bursts at 5 Hz and each burst having 4 pulses at 100 Hz. To generate LTD we used Low Frequency Stimulation (LFS) consisting in 900 paired pulses at 1 Hz. Recordings were filtered at 2.0-3.0 kHz, sampled at 4.0 kHz using an A/D converter, and stored with pClamp 10 (Molecular Devices). Evoked postsynaptic responses were analyzed off-line, using an analysis software (pClampfit, Molecular Devices), which allowed visual detection of events, computing only those events that exceeded and arbitrary threshold.

[2] = test system: Wnt/β-catenin pathway in hippocampal slices; assay: β-catenin, GSK-3β and Dvl-3 western blot in hippocampal slices of wild-type mice; format: cell-based; settings: for time at which total levels of β-catenin increased: 5 μM ANDRO, Wnt3a conditioned medium or 10 nM 6-BIO, up to 1 h
Description: Slice preparation. […] Transverse slices (250-300 μm) from the dorsal hippocampus were cut under oxygen-saturated cold artificial cerebrospinal fluid using a Vibroslice microtome (VSL, World Precision Instruments, Inc WPI, Sarasota, Fla.). After obtained, slices were incubated in ACSF for at least than one hour at room temperature, in order to stabilize activity.
Immunoblotting. […] Briefly, tissues were homogenized in RIPA buffer (10 mM Tris-Cl, pH 7.4, EDTA 5 mM, 1% NP-40, 1% sodium deoxycholate, and 1% SDS) supplemented with a protease inhibitor mixture (1 mM PMSF, 2 μg/mL aprotinin, 1 μg/mL pepstatin and 10 μg/mL benzamidine) and phosphatase inhibitors (25 mMNaF, 100 mM Na3VO4, 1 mM EDTA and 30 μM Na4P207) using a Potter homogenizator and then passed sequentially through different caliber syringes. […] Protein concentration was determined using the BCA Protein Assay Kit (Pierce). […] The reactions were followed by incubation with anti-mouse, anti-goat or anti-rabbit IgG peroxidase conjugated (Pierce, Rockford, Ill.) and developed using an ECL kit (Western Lightning Plus ECL, PerkinElmer).

HEK293T cells = assay: TOP/FOP flash luciferase reporter assay; format: cell-based
Description: Luciferase Assay. 150,000 HEK293T cells were seeded in triplicate per condition and kept for 24 hours at 37° C. with 5% CO2. The cultures were transfected with TOPflash or FOPflash (400 ng), which are firefly-luciferase reporter DNA constructs (Milipore), using LipofectAMINE 2000 (Invitrogen). To control for transfection pRL-TK (10 ng) was included in all transfections. […] Values were normalized by the renilla value from the same well. To statistically compare treatments ANOVA was used.

Wnt target genes = assay: PCR array of Wnt target genes in hippocampal neurons; format: cell-based, rat
Description: Primary culture of rat hippocampal neurons. […] PCR-ARRAY. RNA from hippocampal neurons was extracted using Trizol. Quantification and purity of RNA preparations were checked by absorbance using Nanodrop ND-2000. Only preparations with a 260/280 nm ratio≥1.8, a 260/230 nm ratio ≥1,7 and no sign of RNA degradations, verified by agarose gel electrophoresis with Gel Red TM were used. Genomic DNA was degraded. Using RT2First-Strand cDNA Synthesis kit (SuperArray), 1 μg total RNA was reverse transcribed and then real-time PCR was performed by adding cDNA directly to PCR Master Mix, containing SYBR Green and ROX. The mixtures were then aliquoted into a 96-well PCR array plates, which profiles the expression of 84 Wnt target genes from rat. The PCR was run on ABI StepOnePlus, with 1 cycle of 10 min at 95° C. followed by 40 cycles of 15 s at 95° C. and 1 min at 60° C.
Treatment of neuronal cultures. Primary hippocampal cultures of neurons 14 DIV were washed twice in neurobasal medium and maintained for 1 hour.

[3] = 9 h treatment, of the 86 genes analyzed

Compound | induction of LTD (fEPSP slope after LFS) [1] | time at which total levels of β-catenin increased [2] [min] | rate of increase of GSK3β Ser-9 and decrease of Tyr-216 phosphorylation ([2]; compared to Wnt-3a treatment) | TOPflash reporter activity (HEK293T cells; ANDRO 10 μM or 6-BIO 10 nM, 24 h) | increase of luciferase reporter over control (HEK293T cells; TOPflash, HEK293T) [fold] | Cdh-1 gene expression (Wnt target genes) | number of Wnt target genes specifically modulated (Wnt target genes; [3]) [genes] | number of changed Wnt target genes shared by ANDRO and 6-BIO (Wnt target genes; [3]) [genes] | inhibition of β-catenin accumulation by Wnt antagonists sFRP and Dkk-1 ([2]; antagonists 15 min before 5 μM ANDRO or Wnt3a conditioned medium for 1 h)
O=C1Nc2cc(Br)ccc2/C1=C1/Nc2ccccc2/C1=N\O [6-BIO, 6-bromoindirubin-3′-oxime, reference compound] | complete inhibition of the induction of LTD | 15 | faster | significant increase | ~6 | does not | 4 | 4 | –
Wnt-3a | – | 45 | – | – | – | – | – | – | able to inhibit the accumulation of β-catenin in the presence of Wnt3a
